Experimental data published in US6942663B2, “Laser treatment of cutaneous vascular lesions” (Board of Regents, The University of Texas System, priority 2002, dated 2005).
“Also recorded” adds a separate entry of the source.

Assays:
Format in all cases: in vivo, hamster
[1] = test system: arterioles and venules of the dorsal skin flap window preparation; assay: Subdermal (direct) laser irradiation of blood vessels after glycerol, RE50 for permanent coagulation; details: 532 nm, 10 ms pulse, 3 mm spot, versus published native skin values [Barton et al., 1998]
Source text: (§1) Anhydrous glycerol was applied to the subdermal side of the dorsal skin flap window preparation. The subdermal side of the window preparation contains a well approximately 2 mm deep and 1 cm in diameter placed directly over the exposed subdermal skin. A small opening at the bottom allows the flow of glycerol out of the well. This well was filled with glycerol and continually refilled for a total time of twenty minutes. Any remaining glycerol was removed from the well at the end of twenty minutes.

[2] = test system: blood vessels (arterioles and venules) in skin; assay: Effect of glycerol applied to the subdermal side of skin on blood flow (dorsal skin flap window preparation, CDOCT imaging)
Description: Hamsters were anesthetized with a 4:3 mixture of Ketamine (20 mg/ml):Rompun (100 mg/ml) and 0.15 ml/100 g body weight of the solution was delivered IP. […] This in vivo model allows the simultaneous observation of the epidermal and subdermal sides of the skin while maintaining hydration and function [Papenfuss et al., 1979]. The preparation has been used as an in vivo model for optical imaging blood vessels on the subdermal side of skin while maintaining access to the epidermis [Barton et al., 1998, Vargas et al., 2001].
The preparation includes shaving and epilating the entire dorsal area of a hamster. The skin is pulled away from the body along the dorsal midline and sutured to a vertical c-clamp. A circular region 1 cm in diameter is cut from one single thickness of skin, exposing the subdermal side of the opposing thickness of skin. An aluminum chamber is sutured to both sides of the skin, and glass is placed over the cutout section to prevent the tissue from dehydrating on the subdermal side. During the experiments, this glass is removed for improved imaging, and hydration is maintained with application of physiological saline.
Blood vessels in the skin of the dorsal window preparation are located in the subdermal fat and connective tissue layers approximately 400-700 μm beneath the epidermal surface and about 80-100 μm from the exposed subdermal surface of a 100 g hamster. Arterioles and venules in the dorsal window preparation range in diameter between about 50-500 μm in inner diameter, with the main arteriole and venule about 350-500 μm in diameter.
as §1
(§2) The skin surrounding the main arteriole-venute pair in each window preparation was first imaged using Color Doppler optical coherence tomography (CDOCT) (see FIG. 5). The skin was imaged from the subdermal side since these blood vessels are located approximately 100 μm from the subdermal surface, allowing for accurate determination of vessel flow and size characteristics. In the case of control samples (2), the vessels were irradiated from the epidermal side immediately after imaging the native skin. This was achieved by applying a single pulse from a 532 nm, 3 mm spot size, 10 ms pulse duration laser (Versapulse V, Coherent) to the skin without altering its position relative to the CDOCT sample probe. The experimental setup is illustrated in FIG. 5.
(§3) In the other three samples, glycerol was applied to the subdermal side of the window preparation for twenty minutes after imaging the native skin with CDOCT. The optically cleared skin was then imaged again using CDOCT. Laser pulses were applied in the same manner described above and the skin was re-imaged after twenty-four hours to assess if permanent vessel closure occurred.

[3] = test system: main arteriole-venule pair of the dorsal skin flap window preparation; assay: Epidermal laser irradiation of main arteriole-venule pair after glycerol, CDOCT assessment at 24 h
Source text: as §1
In this set of experiments, three dorsal skin flap window preparations were treated with glycerol on the subdermal side of the skin. Then, the main arteriole-venule pair (such as the one labeled A and V in FIG. 3) was irradiated from the epidermal side to determine the approximate range of radiant exposures required to permanently destroy blood vessels in skin treated with glycerol. Since no published data exists for direct comparison with controls, two native hamster dorsal skin flap window preparations were irradiated from the epidermal side as well.
as §2
The skin was imaged again to assess changes to blood flow. […] If any changes in flow or vessel size were observed, the skin was not irradiated again and was imaged after 24 hours. In all, 5 pulses were delivered ranging in radiant exposure from 4.13 J/cm^2 to 16 J/cm^2, the maximum allowable for the laser parameters used. In the second control sample, only a single pulse was delivered with a radiant exposure of 12 J/cm^2.
as §3

OCC(O)CO [glycerol]
reduction of radiant exposure required for permanent vessel destruction, arterioles [1]: 10 factor | reduction of radiant exposure required for permanent vessel destruction, venules [1]: 5-8 factor | permanent vessel damage from agent alone ([2]; addition of agent to blood vessels, no laser): did not result in any permanent vessel damage | flow in arterioles ([2]; glycerol added to subdermal side of skin, prolonged periods of exposure): flow in arterioles ceased as well | flow in venules ([2]; glycerol added to subdermal side of skin, within twenty minutes, venules approximately 100-400 μm in diameter): ceased | flow in arteriole and venule (Doppler image) ([2]; glycerol for twenty minutes, arteriole 250 μm, venule 300 μm, imaged from subdermal side): no flow remains; also recorded: flow does not remain in either the arteriole or venule | flow in arterioles and venules after hydration (reversibility) ([2]; skin hydrated in physiologic saline solution after glycerol): returned to physiologic values; also recorded: upon hydration the skin and blood vessels return to their native state | vessel outcome 24 h after single pulse of 1.6 J/cm^2 ([3]; glycerol twenty minutes, arteriole 250 μm, venule 300 μm, 450 μm from epidermal surface, skin hydrated): Permanent coagulation has been achieved in both blood vessels; also recorded: flow has not returned to either vessel | vessel outcome after radiant exposure of 4.13 J/cm^2 ([3]; glycerol, 200 μm arteriole and 410 μm venule): successful permanent coagulation | vessel outcome after radiant exposure of 4.95 J/cm^2 ([3]; glycerol, 300 μm arteriole and 390 μm venule): only the venule was successfully coagulated | lowest radiant exposure that successfully destroyed blood vessels ([3]; three window preparations, glycerol before irradiation from the epidermal side, 532 nm, 10 ms, 3 mm spot): 1.6 J/cm^2
